Test results as given in US20180201592A1, “2-AMINO-1,3,4-THIADIAZINE AND 2-AMINO-1,3,4-OXADIAZINE BASED ANTIFUNGAL AGENTS” (F2G Limited, priority 2015, published 2018).
Converted amounts (≈) assume the structure as drawn. Where two headings read alike, the source gives them in different places.

Experiments:
Aspergillus niger = test: Minimum inhibitory concentration, YAG medium; assay type: cell-based; conditions: banded MIC grade
Procedure: (§1) The compound was dissolved in DMSO to give a solution containing 5 mg/mL. Tubes were stored at −20° C. until required. On the day of testing thawed solutions were vortex mixed to ensure homogeneity. 30 μL of solution was removed and added to 570 μL of sterile water in a separate sterile Eppendorf. The thoroughly mixed solution was used to prepare a series of doubling dilutions in water, in a deep well plate. Thirteen replicate plates were prepared using a Minitrak by aspirating 20 μL from each well into eleven clear polystyrene 96 well plates. Spores of Aspergillus spp. […] All plates were incubated for 24 hrs at 35° C. Growth was assessed by monitoring the optical density at 485 nm for each well. […] MICs are recorded as mg/L.

Aspergillus flavus = test: Minimum inhibitory concentration, YAG medium; assay type: cell-based; conditions: banded MIC grade
Procedure: as §1

Aspergillus terreus = test: Minimum inhibitory concentration, YAG medium; assay type: cell-based; conditions: banded MIC grade
Procedure: as §1

C. albicans = test: Minimum inhibitory concentration, RPMI medium; assay type: cell-based; conditions: banded MIC grade; for MIC: Candida albicans, RPMI media
Procedure: as §1, with “Assays were also performed in RPMI medium (Roswell Park Memorial Media 1640). To perform MIC tests in this medium, dilutions” for “Spores”, “compounds are prepared in microtitre plates as described above.” for “Aspergillus spp.”, “24-48” for “24”, “The following organisms were tested: […]” for “MICs are recorded as mg/L.”

C. parapsilosis = test: Minimum inhibitory concentration, RPMI medium; assay type: cell-based; conditions: banded MIC grade; for MIC: Lodderomyces parapsilosis, RPMI media
Procedure: as §1, with “Assays were also performed in RPMI medium (Roswell Park Memorial Media 1640). To perform MIC tests in this medium, dilutions” for “Spores”, “compounds are prepared in microtitre plates as described above.” for “Aspergillus spp.”, “24-48” for “24”, “The following organisms were tested: […]” for “MICs are recorded as mg/L.”

C. tropicalis = test: Minimum inhibitory concentration, RPMI medium; assay type: cell-based; conditions: banded MIC grade
Procedure: as §1, with “Assays were also performed in RPMI medium (Roswell Park Memorial Media 1640). To perform MIC tests in this medium, dilutions” for “Spores”, “compounds are prepared in microtitre plates as described above.” for “Aspergillus spp.”, “24-48” for “24”, “The following organisms were tested: […]” for “MICs are recorded as mg/L.”

Aspergillus fumigatus = test: Minimum inhibitory concentration, YAG medium; assay type: cell-based; conditions: banded MIC grade
Procedure: (§2) Between 1 and 5 mgs of compound were accurately weighed out into a sterile Eppendorf tube. The compound was dissolved in DMSO to give a solution containing 5 mg/mL. Tubes were stored at −20° C. until required.
(§3) On the day of testing thawed solutions were vortex mixed to ensure homogeneity. 30 μL of solution was removed and added to 570 μL of sterile water in a separate sterile Eppendorf. The thoroughly mixed solution was used to prepare a series of doubling dilutions in water, in a deep well plate. Thirteen replicate plates were prepared using a Minitrak by aspirating 20 μL from each well into eleven clear polystyrene 96 well plates.
(§4) Spores of Aspergillus spp. (Aspergillus fumigatus [two strains], Aspergillus terreus [two strains], Aspergillus niger and Aspergillus flavus) were harvested from cultures grown on Sabarauds agar for 5 days, and resuspended in PBS/Tween 80 to approx 1×10^7 cfu/mL. Each organism suspension was diluted in YAG medium (1% glucose, 1% ammonium chloride and 0.5% yeast extract) to 0.5-2×10^4cfu/mL. 80 μL of an organism suspension was added to each well of the plate containing drug dilutions.
(§5) This typically produced MIC plates with a drug range 50-0.05 mg/L and organism inocula of 1-2×10^4 cfu/mL for Aspergillus spp. All plates were incubated for 24 hrs at 35° C. Growth was assessed by monitoring the optical density at 485 nm for each well. The MIC of a compound is the lowest drug concentration that inhibits growth of an organism by >70% compared with a drug free control. MICs are recorded as mg/L. In cases where the MIC of an organism is […] the MIC is repeated using a concentration range of 0.5-0.0005 mg/L.

A. fumigatus 210 = test: Minimum inhibitory concentration, YAG medium; assay type: cell-based, Aspergillus fumigatus; conditions: banded MIC grade
Procedure: as §2, §3, §4, §5

A. terreus 49 = test: Minimum inhibitory concentration, YAG medium; assay type: cell-based, Aspergillus terreus; conditions: banded MIC grade
Procedure: as §1

| SMILES | MIC grade, A. NIGER, YAG media (Aspergillus niger) | MIC grade, A. FLAVUS, YAG media (Aspergillus flavus) | MIC grade, A. TERREUS, YAG media (Aspergillus terreus) | MIC grade, C. ALBICANS, RPMI media (C. albicans) | MIC grade, C. PARAPSILOSIS, RPMI media (C. parapsilosis) | MIC grade, C. TROPICALIS, RPMI media (C. tropicalis) | MIC grade, A. FUMIGATUS, YAG media (Aspergillus fumigatus) | MIC grade, A. FUMIGATUS 210, YAG media (A. fumigatus 210) | MIC grade, A. TERREUS 49, YAG media (A. terreus 49) | MIC (Aspergillus niger; Aspergillus niger, YAG media) [µg/mL] | MIC (Aspergillus flavus; Aspergillus flavus, YAG media) [µg/mL] | MIC (Aspergillus terreus; Aspergillus terreus, YAG media) [µg/mL] | MIC (C. albicans; read-out: MIC grade C. ALBICANS) [µg/mL] | MIC (C. albicans; read-out: MIC grade, C. ALBICANS, RPMI media) [µg/mL] | MIC (C. parapsilosis; read-out: MIC grade C. PARAPSILOSIS) [µg/mL] | MIC (C. parapsilosis; read-out: MIC grade, C. PARAPSILOSIS, RPMI media) [µg/mL] | MIC (C. tropicalis; Candida tropicalis, RPMI media) [µg/mL] | MIC (Aspergillus fumigatus; Aspergillus fumigatus, YAG media) [µg/mL] | MIC (A. fumigatus 210; Aspergillus fumigatus, 210, YAG media) [µg/mL] | MIC (A. terreus 49; Aspergillus terreus, 49, YAG media) [µg/mL] |
| --- | --- | --- | --- | --- | --- | --- | --- | --- | --- | --- | --- | --- | --- | --- | --- | --- | --- | --- | --- | --- |
| CCCOc1ccc(CCC2=NN=C(N)SC2)cc1 | 4 (4: <0.2 mg/L) | 3 (3: 0.2-1 mg/L) | 4 (4: <0.2 mg/L) | 4 (4: <1 mg/L) | 4 (4: <1 mg/L) | 3 (3: 1-5 mg/L) | 4 (4: <0.2 mg/L) | 4 (4: <0.2 mg/L) | 4 (4: <0.2 mg/L) |  |  |  |  |  |  |  |  |  |  |  |
| NC1=NN=C(c2ccc(Cl)cc2)CS1 | 2 (2: 1-5 mg/L) | 3 (3: 0.2-1 mg/L) | 3 (3: 0.2-1 mg/L) | 1 (1: ≥20 mg/L) | 1 (1: ≥20 mg/L) | 1 (1: ≥20 mg/L) | 3 (3: 0.2-1 mg/L) | 2 (2: 1-5 mg/L) | 3 (3: 0.2-1 mg/L) |  |  |  |  |  |  |  |  |  |  |  |
| COCCCCCC1=CSC(=N)NN1C | 3 (3: 0.2-1 mg/L) | 4 (4: <0.2 mg/L) | 3 (3: 0.2-1 mg/L) | 4 (4: <1 mg/L) | 4 (4: <1 mg/L) | 3 (3: 1-5 mg/L) | 3 (3: 0.2-1 mg/L) | 4 (4: <0.2 mg/L) | 4 (4: <0.2 mg/L) |  |  |  |  |  |  |  |  |  |  |  |
| NC1=NN=C(c2cccc(Cl)c2)CS1 | 1 (1: ≥5 mg/L) | 1 (1: ≥5 mg/L) | 1 (1: ≥5 mg/L) | 1 (1: ≥20 mg/L) | 1 (1: ≥20 mg/L) | 1 (1: ≥20 mg/L) | 1 (1: ≥5 mg/L) | 1 (1: ≥5 mg/L) | 1 (1: ≥5 mg/L) |  |  |  |  |  |  |  |  |  |  |  |
| COc1ccc(C2=CSC(N)=NN2C)cc1 [5-(4-methoxyphenyl)-4-methyl-1,3,4-thiadiazin-2-amine] |  |  |  |  |  |  |  |  |  | < 0.2 | < 0.2 | < 0.2 | < 1 | < 1 | < 1 | < 1 | 1 to 5 (≈ 4.25 to 21.2 µM) | < 0.2 | < 0.2 | < 0.2 |
| CCOC(=O)c1ccc(C2=CSC(N)=NN2)cc1 | 4 (4: <0.2 mg/L) | 4 (4: <0.2 mg/L) | 4 (4: <0.2 mg/L) | 3 (3: 1-5 mg/L) | 4 (4: <1 mg/L) | 2 (2: 5-20 mg/L) | 4 (4: <0.2 mg/L) | 4 (4: <0.2 mg/L) | 3 (3: 0.2-1 mg/L) |  |  |  |  |  |  |  |  |  |  |  |
| NC1=NN=C(CCOCc2ccc(-c3ccccc3)cc2)CS1 | 3 (3: 0.2-1 mg/L) | 3 (3: 0.2-1 mg/L) | 3 (3: 0.2-1 mg/L) | 1 (1: ≥20 mg/L) | 2 (2: 5-20 mg/L) | 2 (2: 5-20 mg/L) | 1 (1: ≥5 mg/L) | 1 (1: ≥5 mg/L) | 3 (3: 0.2-1 mg/L) |  |  |  |  |  |  |  |  |  |  |  |
| CCCCCOc1ccc(CCC2=NN=C(N)SC2)cc1 | 3 (3: 0.2-1 mg/L) | 3 (3: 0.2-1 mg/L) | 2 (2: 1-5 mg/L) | 1 (1: ≥20 mg/L) | 3 (3: 1-5 mg/L) | 3 (3: 1-5 mg/L) | 1 (1: ≥5 mg/L) | 1 (1: ≥5 mg/L) | 3 (3: 0.2-1 mg/L) |  |  |  |  |  |  |  |  |  |  |  |
| CCCCC/C=C/C1=NN=C(N)SC1 | 2 (2: 1-5 mg/L) | 2 (2: 1-5 mg/L) | 2 (2: 1-5 mg/L) | 2 (2: 5-20 mg/L) | 2 (2: 5-20 mg/L) | 1 (1: ≥20 mg/L) | 2 (2: 1-5 mg/L) | 2 (2: 1-5 mg/L) | 2 (2: 1-5 mg/L) |  |  |  |  |  |  |  |  |  |  |  |
| NC1=NN=C(c2ccc3ccccc3c2)CS1 | 1 (1: ≥5 mg/L) | 1 (1: ≥5 mg/L) | 1 (1: ≥5 mg/L) | 1 (1: ≥20 mg/L) | 1 (1: ≥20 mg/L) | 1 (1: ≥20 mg/L) | 2 (2: 1-5 mg/L) | 1 (1: ≥5 mg/L) | 1 (1: ≥5 mg/L) |  |  |  |  |  |  |  |  |  |  |  |
| NC1=NN=C(c2ccc(C3CCCCC3)cc2)CS1 | 1 (1: ≥5 mg/L) | 1 (1: ≥5 mg/L) | 1 (1: ≥5 mg/L) | 1 (1: ≥20 mg/L) | 1 (1: ≥20 mg/L) | 1 (1: ≥20 mg/L) | 1 (1: ≥5 mg/L) | 1 (1: ≥5 mg/L) | 1 (1: ≥5 mg/L) |  |  |  |  |  |  |  |  |  |  |  |
| CCOC(=O)CCCCCC1=NN=C(N)SC1 | 4 (4: <0.2 mg/L) | 4 (4: <0.2 mg/L) | 4 (4: <0.2 mg/L) | 4 (4: <1 mg/L) | 4 (4: <1 mg/L) | 3 (3: 1-5 mg/L) | 3 (3: 0.2-1 mg/L) | 4 (4: <0.2 mg/L) | 4 (4: <0.2 mg/L) |  |  |  |  |  |  |  |  |  |  |  |
| COCC1=NN=C(N)SC1 | 2 (2: 1-5 mg/L) | 2 (2: 1-5 mg/L) | 2 (2: 1-5 mg/L) | 2 (2: 5-20 mg/L) | 2 (2: 5-20 mg/L) | 2 (2: 5-20 mg/L) | 2 (2: 1-5 mg/L) | 2 (2: 1-5 mg/L) | 2 (2: 1-5 mg/L) |  |  |  |  |  |  |  |  |  |  |  |
| CCCCCCOCCC1=NN=C(N)SC1 | 4 (4: <0.2 mg/L) | 4 (4: <0.2 mg/L) | 4 (4: <0.2 mg/L) | 4 (4: <1 mg/L) | 4 (4: <1 mg/L) | 3 (3: 1-5 mg/L) | 4 (4: <0.2 mg/L) | 4 (4: <0.2 mg/L) | 4 (4: <0.2 mg/L) |  |  |  |  |  |  |  |  |  |  |  |
